Laboratory results published in patent publication US11214540B2, “Compositions for treating neurodegenerative diseases” (COGNITION THERAPEUTICS, INC., priority 2017, dated 2022).

Assays:
[1] = system: Abeta oligomer-induced membrane trafficking deficits in primary hippocampal neurons; assay: Membrane Trafficking/Exocytosis (MTT) assay, Abeta oligomer effect on neurons; type: cell-based, rat; settings: membrane trafficking; read-out: EC50 Abeta;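 further: compound potency for inhibiting the Abeta oligomer effect on exocytosis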
Protocol: Compounds according to any embodiment described herein, were tested for their ability to inhibit an amyloid beta effect on the cells. The compounds generally were able to inhibit the amyloid beta effect as measured by a membrane trafficking/exocytosis assay (MTT assay). The rationale for this assay was as follows:
The present exocytosis assay was adapted for use with mature primary neuronal cultures grown for 3 weeks in vitro. See WO 2011/106785, which is incorporated herein by reference in its entirety. Abeta oligomers cause a dose-dependent decrease in the amount of intracellular vesicles (puncta) filled with reduced purple formazan as measured via image processing using a Cellomics VTI automated microscopy system. […] Increasing the amount of Abeta oligomers eventually results in overt toxicity. Thus, the concentration of neuroactive Abeta oligomers used in the assay is much lower than that causing cell death. […] When configured in this manner, the assay is able to detect compounds that inhibit nonlethal effects of Abeta oligomer whether these compounds act via disruption of oligomers, inhibition of oligomer binding to neurons, or counteraction of signal transduction mechanisms of action initiated by oligomer binding.
Primary hippocampal neurons from E18 Sprague-Dawley rat embryos were plated at optimized concentrations in 384 well plates in NB media (Invitrogen). Neurons were maintained in cultures for 3 weeks, with twice weekly feeding of NB media with N2 supplement (Invitrogen).
A test compound was added to cells at concentrations ranging from 100 uM to 0.001 nM followed by addition of vehicle or Abeta oligomer preparations (3 μM total Abeta protein concentration), and incubated for 1 to 24 hr at 37° C. in 5% CO2. MTT reagent (3-(4,5-dimethylthizaol-2yl)-2,5diphenyl tetrazolium bromide) (Roche Molecular Biochemicals) was reconstituted in phosphate buffered saline to 5 mg/mL. 10 μL of MTT labeling reagent is added to each well and incubated at 37° C. for 1 h, then imaged. Exocytosis was assessed by automated microscopy and image processing to quantify the amount of endocytosed and exocytosed formazan.
Each assay plate was formatted so that compounds are tested with and without Abeta oligomer on each plate. This design eliminates toxic or metabolically active compounds early on in the screening cascade (at the level of the primary screen). Reduced formazan was first visible in intracellular vesicles. Eventual formazan exocytosis was accelerated via Abeta oligomers.
Human amyloid peptide 1-42 was obtained from a number of commercial vendors such as California Peptide, with lot-choice contingent upon quality control analysis. Quality controls of oligomer preparations consist of Westerns to determine oligomer size ranges and relative concentrations, and the MTT assay to confirm exocytosis acceleration without toxicity. Toxicity was monitored in each image-based assay via quantification of nuclear morphology visualized with the DNA binding blue dye DAPI (Invitrogen). Nuclei that are fragmented are considered to be in late stage apoptosis (Majno and Joris '95) and the test would be rejected. Peptide lots producing unusual peptide size ranges or significant toxicity at a standard 1.5 μM concentration on neurons would also be rejected.
Data handling and analysis were accomplished by Cellomics VTI image analysis software and STORE automated database software. Because of the low dynamic range and neuronal well-to-well variability after three weeks in culture, statistical comparisons are made via pairwise Tukey-Kramer analysis to determine the significance of the separation between compound+Abeta oligomers from Abeta alone, and between compound alone from vehicle. The ability of mature primary neurons to more closely approximate the electrophysiologically mediated signal transduction network of the adult brain justifies this screening strategy. […]

potassium channel hERG = potassium channel hERG (Homo sapiens (Human), UniProt Q12809); assay: In vitro testing for hERG inhibition; type: biochemical; settings: in vitro toxicity potassium channel hERG
Sequence of potassium channel hERG (Q12809 whole entry): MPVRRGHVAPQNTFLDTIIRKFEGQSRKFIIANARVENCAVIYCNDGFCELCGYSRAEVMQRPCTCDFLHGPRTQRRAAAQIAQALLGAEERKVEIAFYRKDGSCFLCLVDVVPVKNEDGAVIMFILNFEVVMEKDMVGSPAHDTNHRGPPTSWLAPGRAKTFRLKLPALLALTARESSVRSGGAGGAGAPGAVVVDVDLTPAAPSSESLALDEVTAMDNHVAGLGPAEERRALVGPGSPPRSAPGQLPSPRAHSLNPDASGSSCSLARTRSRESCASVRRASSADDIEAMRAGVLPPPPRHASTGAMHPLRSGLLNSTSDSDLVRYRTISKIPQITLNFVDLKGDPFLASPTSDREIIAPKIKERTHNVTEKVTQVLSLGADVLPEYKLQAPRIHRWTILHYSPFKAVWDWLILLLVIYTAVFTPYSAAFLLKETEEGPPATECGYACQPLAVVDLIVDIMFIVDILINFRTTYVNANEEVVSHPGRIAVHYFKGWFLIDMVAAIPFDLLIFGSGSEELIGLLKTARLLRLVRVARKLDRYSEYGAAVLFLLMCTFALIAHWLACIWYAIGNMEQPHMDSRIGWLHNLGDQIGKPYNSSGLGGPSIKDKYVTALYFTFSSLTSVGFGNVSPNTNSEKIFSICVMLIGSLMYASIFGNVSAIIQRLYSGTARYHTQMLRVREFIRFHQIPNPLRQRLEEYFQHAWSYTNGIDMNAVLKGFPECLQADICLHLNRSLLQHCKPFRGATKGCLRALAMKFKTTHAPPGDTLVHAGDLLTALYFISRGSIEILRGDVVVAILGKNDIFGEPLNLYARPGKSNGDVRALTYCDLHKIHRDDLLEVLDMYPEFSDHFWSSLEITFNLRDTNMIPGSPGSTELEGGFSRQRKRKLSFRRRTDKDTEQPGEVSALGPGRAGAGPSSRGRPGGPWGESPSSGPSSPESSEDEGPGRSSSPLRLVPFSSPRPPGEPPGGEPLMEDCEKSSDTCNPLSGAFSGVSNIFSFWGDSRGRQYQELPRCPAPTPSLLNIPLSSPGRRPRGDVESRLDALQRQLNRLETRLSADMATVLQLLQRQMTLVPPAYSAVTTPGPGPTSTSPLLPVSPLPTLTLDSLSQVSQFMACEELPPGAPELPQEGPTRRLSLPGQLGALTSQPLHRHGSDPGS
Protocol: In vitro testing for hERG inhibition was performed in a standard assay (See: Haverkamp W, Breithardt G, Carnm A J, Janse M J, Rosen M R, Antzelevitch C, Escande D, Franz M, Malik M, Moss A and Shah R. (2000) Eur Heat J 21 (15); 1216-31).

log P = type: physicochemical
Procedure, shortened: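 Ratio of un-ionized compound concentrations between octanol and water, with aqueous pH set so the un-ionized form predominates. Value given as the log of the octanol/water ratio.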

[2] = biological target: Sigma-2 receptors on membranes from rat cerebral cortex (Rattus norvegicus (Rat), UniProt Q5U3Y7); assay: Competitive Radioligand Binding Assay 1, Sigma-2 binding ([3H]DTG displacement with (+)pentazocine mask); settings: sigma-2 receptor affinity; read-out: S2 Ki
Sequence of Sigma-2 receptors on membranes from rat cerebral cortex (Q5U3Y7 whole entry): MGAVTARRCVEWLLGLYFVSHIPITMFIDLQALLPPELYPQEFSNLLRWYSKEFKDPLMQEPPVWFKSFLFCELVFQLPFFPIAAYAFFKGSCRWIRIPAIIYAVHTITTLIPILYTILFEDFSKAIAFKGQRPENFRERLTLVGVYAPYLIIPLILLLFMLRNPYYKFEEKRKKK
Protocol: Using the same protocol, some compounds for which membrane trafficking data are given in Table 1 were tested for recognition of sigma-2 receptor. Certain compounds preferentially bind to the sigma-2 receptor.
For Sigma-1 binding, various concentrations of test compounds from 100 μM to 1 nM were used to displace 8 nM [3H](+)pentazocine from endogenous receptors on Jurkat cell membranes (Ganapathy M E et al. 1991, J Pharmacol. Exp. Ther. 289:251-260). 10 μM Haloperidol was used to define non-specific binding. […] (Bowen W D, et al. 1993, Mol. Neuropharmcol 3:117-126). 10 μM Haloperidol was used to define non-specific binding. Reactions were terminated by rapid filtration through Whatman GF/C filters using a Brandel 12R cell harvester followed by two washes with ice-cold buffer. Radioactivity on the dried filter discs was measured using a liquid scintillation analyzer (Tri-Carb 2900TR; PerkinElmer Life and Analytical Sciences). The displacement curves were plotted and the Ki values of the test compounds for the receptor subtypes were determined using GraphPad Prism (GraphPad Software Inc., San Diego, Calif.). The percentage specific binding was determined by dividing the difference between total bound (disintegrations per minute) and nonspecific bound (disintegrations per minute) by the total bound (disintegrations per minute).
Affinities for Sigma-1 and Sigma-2 receptors are typically obtained from published studies using cerebral tissue homogenates with [3H](+)pentazocine to measure displacement from Sigma-1 receptors and [3H] 1,3-Di-(2-tolyl)guanidine in the presence of 300 nM (+)pentazocine to measure displacement from Sigma-2 receptors.

log P (log P)	Ki [2]	SMILES	EC50 [1]	IC50 (potassium channel hERG)
4.25	–	CC(C)=CC(CC(C)(C)c1ccccc1)N1CCC(C)(O)CC1 (stereo not shown) [Compound 213]	6.6 µM	6.4 µM
7.42	0.24 µM	CC(C)=CC(CC(C)(C)c1ccc(Cl)cc1)N1CCC(c2ccnc(N3CCCC3)c2)CC1 (stereo not shown) [Compound 63]	1.5 µM	–
6.54	–	CCCCC1(O)CCN(C(C=C(C)C)CC(C)(C)c2ccc(C(F)(F)F)cc2)CC1 (stereo not shown) [Compound 212]	1.8 µM	27 µM
5.07	–	COCC1CCCN1C(C=C(C)C)CC(C)(C)c1ccccc1 (stereo not shown) [Compound 252]	15 µM	7 µM
3.97	–	CC(C)=CC(CC(C)(C)c1ccccc1)N1CCC(O)CC1 (stereo not shown) [Compound 201]	15 µM	15 µM
5.21	0.15 µM	CC(C)=CC(CC(C)(C)c1ccc(C)cc1)NCC1CCOCC1 (stereo not shown) [Compound 57]	0.73 µM	–
3.79	–	CC(CC(C)(C)c1ccc(C(F)(F)F)cc1)N1CC[C@H](O)C1 (stereo partly shown) [Compound 233]	0.26 µM	24 µM
6.37	0.032 µM	CC(C)=CC(CC(C)(C)c1ccc(Cl)cc1)N1CCC(c2ccc(S(C)(=O)=O)cc2)CC1 (stereo not shown) [Compound 32]	6.9 µM	–
5.58	–	CCOC1CCN(C(C=C(C)C)CC(C)(C)c2ccc(Cl)cc2)CC1 (stereo not shown) [Compound 136]	1.5 µM	2.1 µM
5.22	–	COCC1CCCN1C(C=C(C)C)CC(C)(C)c1ccc(F)cc1 (stereo not shown) [Compound 245]	> 15 µM	14 µM
4.54	0.43 µM	COc1ccc(C(C)(C)CC(C=C(C)C)NCC2CCOCC2)cc1 (stereo not shown) [Compound 74]	12.9 µM	–
4.61	–	CC(C)=CC(CC(C)(C)c1ccc(F)cc1)N1CCC(N2CCOCC2)CC1 (stereo not shown) [Compound 126]	0.3 µM	7.4 µM
4.79	–	COCCC1(O)CCN(C(C=C(C)C)CC(C)(C)c2ccc(C(F)(F)F)cc2)CC1 (stereo not shown) [Compound 210]	0.42 µM	4.4 µM
5.22	–	COC[C@@H]1CCCN1[C@@H](C=C(C)C)CC(C)(C)c1ccc(F)cc1 [Compound 244]	8.5 µM	4.8 µM
6.5	–	CC(C)=CC(CC(C)(C)c1ccc(C(F)(F)F)cc1)N1CCC(O)(c2ccccc2)CC1 (stereo not shown) [Compound 205]	0.59 µM	3.9 µM
6.41	–	CC(C)=CC(CC(C)(C)c1ccc(C(F)(F)F)cc1)N1CCC(N2CCCCC2)CC1 (stereo not shown) [Compound 127]	0.3 µM	3.3 µM
5.31	–	CC(C)=CC(CC(C)(C)c1ccc(C(F)(F)F)cc1)N1CCC[C@H]1CO (stereo partly shown) [Compound 236]	15 µM	20 µM
6.93	1.3 µM	CC(C)=CC(CC(C)(C)c1ccc(C)cc1)N[C@H](C)c1ccccc1 (stereo partly shown) [Compound 80]	0.64 µM	–
4.55	0.1 µM	CC(C)=CC(CC(C)(C)c1ccc(S(C)(=O)=O)cc1)N1CCC(c2ccncc2)CC1 (stereo not shown) [Compound 51]	20 µM	–
5.13	–	CC(C)=CC(CC(C)(C)c1ccc(C(F)(F)F)cc1)N1CCC(C)(O)CC1 (stereo not shown) [Compound 129]	1.3 µM	24 µM

log P (log P)	Ki [2]	SMILES	EC50 [1]	IC50 (potassium channel hERG)
6.91	0.21 µM	CC(C)=CC(CC(C)(C)c1ccc(C)cc1)N1CCN(c2ccccc2)CC1 (stereo not shown) [Compound 60]	1 µM	–
5.07	–	COC[C@@H]1CCCN1[C@@H](C=C(C)C)CC(C)(C)c1ccccc1 [Compound 249]	15 µM	9.4 µM
3.44	–	CC1(O)CCN(CCC(C)(C)c2ccc(Cl)cc2)CC1 [Compound 192]	–	19 µM
6.26	0.085 µM	CC(C)=CC(CC(C)(C)c1ccc(C)cc1)N1CCN(CC(C)C)CC1 (stereo not shown) [Compound 45]	2.6 µM	–
6.22	0.00076 µM	CC(C)=CC(CC(C)(C)c1ccc(C)cc1)N1CCC(C2CCOCC2)CC1 (stereo not shown) [Compound 3]	0.25 µM	–
4.51	–	COCCC1(O)CCN(C(C=C(C)C)CC(C)(C)c2ccc(Cl)cc2)CC1 (stereo not shown) [Compound 217]	4.6 µM	7.7 µM
7.04	0.033 µM	CC(C)=CC(CC(C)(C)c1ccc(C)cc1)N1CCC(C(C)C)CC1 (stereo not shown) [Compound 33]	1.92 µM	–
4.03	–	CC(CC(C)(C)c1ccc(Cl)cc1)N1CCCC1CO (stereo not shown) [Compound 229]	15 µM	21 µM
6.8	0.3 µM	CC(C)=CC(CC(C)(C)c1ccc(Cl)cc1)N1CCC(c2ccnc(N3CCOCC3)c2)CC1 (stereo not shown) [Compound 67]	13 µM	–
6.2	–	CC(C)=CC(CC(C)(C)c1ccc(Cl)cc1)N1CCN(C(=O)OCC(C)C)CC1 (stereo not shown) [Compound 198]	–	4.8 µM
4.52	–	CC(C)=CC(CC(C)(C)c1ccc(Cl)cc1)N1CC[C@H](O)C1 (stereo partly shown) [Compound 230]	10 µM	16 µM
6.16	–	CC(C)=CC(CC(C)(C)c1ccc(F)cc1)N1CCC2(CC1)OCc1ccccc12 (stereo not shown) [Compound 185]	–	3 µM
4.67	–	COCC1CCCN1C(C)CC(C)(C)c1ccc(Cl)cc1 (stereo not shown) [Compound 238]	15 µM	13 µM
4.05	–	COCCC1(O)CCN(C(C=C(C)C)CC(C)(C)c2ccc(F)cc2)CC1 (stereo not shown) [Compound 218]	–	13 µM
6.37	0.086 µM	CC(C)=CC(CC(C)(C)c1ccc(Cl)cc1)N1CCC(c2cccc(S(C)(=O)=O)c2)CC1 (stereo not shown) [Compound 46]	4.8 µM	–
6.9	0.11 µM	CC(C)=CC(CC(C)(C)c1ccc(C)cc1)NCC1CCCCC1 (stereo not shown) [Compound 52]	4.8 µM	–
4.79	–	CC(C)=CC(CC(C)(C)c1ccc(C(F)(F)F)cc1)N1CC[C@H](O)C1 (stereo partly shown) [Compound 232]	15 µM	29 µM
6.28	–	CC(C)=CC(CC(C)(C)c1ccc(C(F)(F)F)cc1)N1CCN(C(=O)OC(C)(C)C)CC1 (stereo not shown) [Compound 200]	–	83 µM
3.51	–	CC(CC(C)(C)c1ccc(Cl)cc1)N1CCC(O)C1 (stereo not shown) [Compound 250]	15 µM	28 µM
